From patent publication US9370189B2, “Controlling Pseudomonas aeruginosa persister cells with GM-CSF” (priority 2012, dated 2016)

Assays:
[1] = test system: P. aeruginosa PDO300; assay: Effect of GM-CSF on planktonic PDO300 cells (total viable cells and persisters) at exponential phase, alone and with antibiotic; assay type: cell-based, Pseudomonas aeruginosa; conditions: for % change in avg. CFU/mL by GM-CSF (compared to GM-CSF free control) With 50 μg/mL Cip / % change in avg. CFU/mL by GM-CSF (compared to GM-CSF free control) With 50 μg/mL Tet / % change in avg. CFU/mL by GM-CSF (compared to GM-CSF free control) With 50 μg/mL Tob / % change in avg. CFU/mL by GM-CSF (compared to GM-CSF free control) With 200 μg/mL Gen: PDO300 exponential phase, 0.17 pM GM-CSF; for % change in avg. CFU/ml after adding factor + CIP / % change in avg. CFU/ml after adding factor + TET / % change in avg. CFU/ml after adding factor + TOB / % change in avg. CFU/ml after adding factor + GEN / average CFU/ml of persisters reduced by / average CFU/ml of total viable cells reduced by: planktonic PDO300; for % change in avg. CFU/ml after adding factor + CIP: 2.43 pg/mL GM-CSF with 50 μg/mL ciprofloxacin; for % change in avg. CFU/ml after adding factor + TET: 2.43 pg/mL GM-CSF with 50 μg/mL tetracycline; for % change in avg. CFU/ml after adding factor + TOB: 2.43 pg/mL GM-CSF with 50 μg/mL tobramycin; for % change in avg. CFU/ml after adding factor + GEN: 2.43 pg/mL GM-CSF with 200 μg/ml gentamicin; for average CFU/ml of persisters reduced by / average CFU/ml of total viable cells reduced by: reduction
Method: This Example describes the treatment of planktonic P. aeruginosa PAO1, PDO300 and Escherichia coli K12, with GM-CSF introduced directly or together with an antibiotic to test the synergy. All experiments were conducted with cells harvested from exponential phase subcultures with an optical density at 600 nm (OD600) of 0.3 to 0.4.
In brief, after preparing an overnight culture of the tested strain in 25 ml LB medium, a subculture was prepared with an OD600 of 0.01 in 50 mL LB medium. The subculture was incubated at 37° C. with shaking at 200 rpm for 3-4 h, till an OD600 of 0.3 to 0.4 was reached. The exponential phase subculture was then divided equally into two centrifuge tubes, each containing 25 mL of the subculture. The subcultures were washed twice with 0.85% NaCl buffer by vortexing and then centrifuging at 4° C., 8000 rpm for 10 min each time. The washed subcultures/cells were resuspended in 25 mL 0.85% NaCl buffer and vortexed gently for 1 min. One of the tubes of subculture was selected for isolation of persisters by adding 200 μg/mL ciprofloxacin (for PAO1 and PDO300 strains) or 100 μg/mL ampicillin (for E. coli K12 strain). After adding the antibiotic for persister isolation, the subculture was incubated at 37° C., shaking at 200 rpm for 3.5 h.
To test the effects of GM-CSF on viability of persisters, the second tube was used to quantify the total number of viable cells and 1 mL of the washed persister cells was divided into 6 microcentrifuge tubes; 3 were control and the other 3 were GM-CSF treatment samples. In the treatment samples, GM-CSF was added to a concentration of 2.43 pg/mL (or 0.17 pM), the same as found in healthy human bodies. The control samples were supplemented with the same concentration of PBS and BSA as present in 2.43 pg/mL (or 0.17 pM) GM-CSF samples.
After incubating at 37° C. for 1 h with shaking at 200 rpm, the samples were plated on LB agar plates (15 g/L bacto agar) using drop plate method. The agar plates were then incubated for 24 h at 37° C. to count the total number of persister cells and understand the effect of 0.17 pM GM-CSF on the viability of persister cells.
To test the synergy with antibiotics, the above samples were then incubated at 37° C. for 3.5 h with shaking at 200 rpm after adding the selected antibiotic. After 3.5 h, the CFU of samples was quantified in the same way to understand if there is any synergy between GM-CSF and antibiotic. Similar treatments were performed on the total population in exponential phase as well. Apart from exponential phase, the synergistic effects of GM-CSF with antibiotics on total viable cells and persisters were also evaluated at stationary phase but PBS buffer (pH=7.4) was used in the experiments instead of 0.85% NaCl solution. Moreover, the 1 h and 3.5 h treatments were performed as co-treatments.

[2] = test system: P. aeruginosa PDO300 biofilm; assay: Effect of GM-CSF on 24-h PDO300 biofilm, alone and with antibiotic; assay type: cell-based, Pseudomonas aeruginosa; conditions: for average CFU/ml of biofilm cells reduced by: reduction, PDO300 biofilm
Method: This Example describes the treatment of biofilms made from P. aeruginosa PAO1, PDO300 and Escherichia coli K12, with GM-CSF introduced directly or together with an antibiotic to test the synergy.
In brief, after preparing an overnight culture, it was subcultured to an initial OD600 of 0.01 to a total volume of 20 mL M63 medium (for PAO1 and PDO300) or 20 ml LB medium (for E. coli K12) in a petri dish with 316L stainless steel coupons (1.75 cm×1 cm). The biofilm was grown for 24 h at 37° C. without shaking. After incubation, the coupons were washed by gently dipping in 0.85% NaCl twice using tweezers and were placed in new empty petri dishes.
To test the synergistic effects between GM-CSF (2.43 pg/mL or 0.17 pM) and antibiotics, a total of 8 coupons were analyzed. These 8 coupons were placed in 4 petri dishes (2 coupons in each dish). The two dishes were labeled as control and the other two as treatment samples. In the treatment samples, GM-CSF was added to 20 mL of 0.85% NaCl to a concentration of 2.43 pg/mL (or 0.17 pM). The control samples were supplemented with the same amount of PBS and BSA as present in the samples with 2.43 pg/ml (or 0.17 pM) GM-CSF. The coupons were incubated at 37° C. for 2 h.
After incubation, a control dish and a treatment dish was selected for studying the killing effect of 2.43 pg/ml GM-CSF on biofilm cells. Each coupon after gentle washing with 0.85% NaCl buffer, was placed in a test tube with 3 mL 0.85% NaCl buffer in each. They were sonicated (B200, Sinosonic Industrial Co., Ltd., Taiwan) for 4 mins to release the biofilm cells in the buffer. After vortexing for 1 min, they were plated on LB agar plates using drop plate method. The CFU was counted after incubation at 37° C. for 24 h to count the total number of viable cells. Furthermore, the synergistic effect of antibiotics with GM-CSF was evaluated with additional 3.5 h treatment with antibiotic at 37° C. After incubation, drop plate method was performed and the CFU was counted to understand if there is a synergistic effect.

[3] = 2.43 pg/ml GM-CSF in the presence of 50 μg/mL ciprofloxacin
[4] = 2.43 pg/ml GM-CSF in the presence of 50 μg/mL tetracycline
[5] = 2.43 pg/ml GM-CSF in the presence of 50 μg/mL tobramycin
[6] = 2.43 pg/ml GM-CSF in the presence of 200 μg/mL gentamicin

GM-CSF: granulocyte macrophage-colony stimulating factor, a cytokine secreted by macrophages; recombinant human GM-CSF (R&D systems) in binding tests
% change in avg. CFU/mL by GM-CSF (compared to GM-CSF free control) With 50 μg/mL Cip ([1]; persisters): −22.2%
% change in avg. CFU/mL by GM-CSF (compared to GM-CSF free control) With 50 μg/mL Tet ([1]; persisters): −46.2%
% change in avg. CFU/mL by GM-CSF (compared to GM-CSF free control) With 50 μg/mL Tob ([1]; persisters): −80.0%
% change in avg. CFU/mL by GM-CSF (compared to GM-CSF free control) With 200 μg/mL Gen ([1]; persisters): −50.0%
% change in avg. CFU/ml after adding factor + CIP ([1]; persisters): −27.78%
% change in avg. CFU/ml after adding factor + TET ([1]; persisters): −32.69%
% change in avg. CFU/ml after adding factor + TOB ([1]; persisters): −75.86%
% change in avg. CFU/ml after adding factor + GEN ([1]; persisters): −50.94%
average CFU/ml of persisters reduced by [1, 3]: 27.78%
average CFU/ml of total viable cells reduced by [1, 3]: 25.00%
average CFU/ml of persisters reduced by [1, 4]: 32.69%
average CFU/ml of total viable cells reduced by [1, 4]: 12.50%
average CFU/ml of persisters reduced by [1, 5]: 75.86%
average CFU/ml of total viable cells reduced by [1, 5]: 8.33%
average CFU/ml of persisters reduced by [1, 6]: 50.94%
average CFU/ml of total viable cells reduced by [1, 6]: 20.00%
% change in avg. CFU/mL by GM-CSF (compared to GM-CSF free control) With 50 μg/mL Cip ([1]; total viable cells): −25.0%
% change in avg. CFU/mL by GM-CSF (compared to GM-CSF free control) With 50 μg/mL Tet ([1]; total viable cells): −12.5%
% change in avg. CFU/mL by GM-CSF (compared to GM-CSF free control) With 50 μg/mL Tob ([1]; total viable cells): −8.3%
% change in avg. CFU/mL by GM-CSF (compared to GM-CSF free control) With 200 μg/mL Gen ([1]; total viable cells): −20.0%
% change in avg. CFU/ml after adding factor + CIP ([1]; total viable cells): −25.00%
% change in avg. CFU/ml after adding factor + TET ([1]; total viable cells): −12.50%
% change in avg. CFU/ml after adding factor + TOB ([1]; total viable cells): −8.33%
% change in avg. CFU/ml after adding factor + GEN ([1]; total viable cells): −20.00%
% change in avg. CFU/ml after adding factor + CIP ([2]; 24-h PDO300 biofilm, 2.43 pg/mL GM-CSF with 200 μg/mL ciprofloxacin): −14.0%
% change in avg. CFU/ml after adding factor + TOB ([2]; 24-h PDO300 biofilm, 2.43 pg/mL GM-CSF with 200 μg/mL tobramycin): −13.0%
% change in avg. CFU/ml after adding factor + GEN ([2]; 24-h PDO300 biofilm, 2.43 pg/ml GM-CSF with 200 μg/mL gentamicin): −10.8%
% change in avg. CFU/ml after adding factor + TET ([2]; 24-h PDO300 biofilm, 2.43 pg/ml GM-CSF with 200 μg/mL tetracycline): −7.3%
average CFU/ml of biofilm cells reduced by ([2]; 2.43 pg/mL GM-CSF alone, average of 2 experiments): 5.64%
average CFU/ml of biofilm cells reduced by ([2]; 2.43 pg/mL GM-CSF in the presence of 200 μg/mL ciprofloxacin): 8.8%
average CFU/ml of biofilm cells reduced by ([2]; 2.43 pg/mL GM-CSF in the presence of 200 μg/mL gentamicin): 5.6%
average CFU/ml of biofilm cells reduced by ([2]; 2.43 pg/mL GM-CSF in the presence of 200 μg/mL tetracycline): 1.8%
average CFU/ml of biofilm cells reduced by ([2]; 2.43 pg/mL GM-CSF in the presence of 200 μg/mL tobramycin): 7.7%
